Some results are limits rather than exact numbers.

In data set [1] the test system is RAW264.7. The experiment in a line: Antiinflammatory activity in mouse RAW264.7 cells assessed as decrease in IFN-gamma and LPS-induced nitric oxide production after 24 hrs by ELISA. In kind it is functional, cell-based. Conditions: RAW264.7, 24 h.
A short description of data set [2]: Cytotoxicity in LPS-stimulated mouse RAW264.7 cells assessed as reduction in cell viability incubated for […] by alamar blue dye based colorimetric assay. Type of data set: toxicity. Conditions: LPS-stimulated RAW264.7 cells.
For data set [3], the system named is RAW264.7. The experiment in a line: Antiinflammatory activity in mouse RAW264.7 cells assessed as decrease in IFN-gamma and LPS-induced IL-1beta production by measuring IL-1beta level at 6.3 uM after 24 hrs by ELISA (reference value: 73.3 +/- 1.8 pg/mg). In kind it is functional. Background: In an ELISA, binding on a coated surface is turned into a signal by an enzyme label.

Data set [4] concerns RAW264.7. The experiment in a line: Antiinflammatory activity in mouse RAW264.7 cells assessed as decrease in IFN-gamma and LPS-induced IL-1beta production by measuring IL-1beta level at 50 uM after 24 hrs by ELISA (reference value: 73.3 +/- 1.8 pg/mg). Type of data set: functional.
In data set [5] the test system is RAW264.7. The experiment in a line: Antiinflammatory activity in mouse RAW264.7 cells assessed as decrease in IFN-gamma and LPS-induced IL-1beta production by measuring IL-1beta level at 12.5 uM after 24 hrs by ELISA (reference value: 73.3 +/- 1.8 pg/mg). In kind it is functional.
Data set [6] has as its system RAW264.7. The experiment in a line: Antiinflammatory activity in mouse RAW264.7 cells assessed as decrease in IFN-gamma and LPS-induced IL-1beta production at 50 uM after 24 hrs by ELISA. In kind it is functional.
Data set [7] concerns RAW264.7. Description: Antiinflammatory activity in mouse RAW264.7 cells assessed as decrease in IFN-gamma and LPS-induced IL-1beta production by measuring IL-1beta level at 25 uM after 24 hrs by ELISA (reference value: 73.3 +/- 1.8 pg/mg). Type of data set: functional.
In data set [8] the test system is RAW264.7. The experiment in a line: Antiinflammatory activity in mouse RAW264.7 cells assessed as decrease in IFN-gamma and LPS-induced IL-1beta production by measuring IL-1beta level at 3.1 uM after 24 hrs by ELISA (reference value: 73.3 +/- 1.8 pg/mg). Type of data set: functional.
For data set [9], the system named is RAW264.7. Description: Antiinflammatory activity in mouse RAW264.7 cells assessed as decrease in IFN-gamma and LPS-induced IL-1beta production at 25 uM after 24 hrs by ELISA. Type of data set: functional.
For data set [10], the system named is RAW264.7. The experiment in a line: Antiinflammatory activity in mouse RAW264.7 cells assessed as decrease in IFN-gamma and LPS-induced IL-1beta production by measuring IL-1beta level at 16.7 uM after 24 hrs by ELISA (reference value: 73.3 +/- 1.8 pg/mg). Type of data set: functional.
Data set [11] deals with RAW264.7. Description: Antiinflammatory activity in mouse RAW264.7 cells assessed as decrease in IFN-gamma and LPS-induced IL-1beta production by measuring IL-1beta level at 2.1 uM after 24 hrs by ELISA (reference value: 73.3 +/- 1.8 pg/mg). In kind it is functional.
The subject of data set [12] is RAW264.7. Description: Antiinflammatory activity in mouse RAW264.7 cells assessed as decrease in IFN-gamma and LPS-induced IL-1beta production at 6.7 uM after 24 hrs by ELISA. In kind it is functional.
The subject of data set [13] is RAW264.7. The experiment in a line: Antiinflammatory activity in mouse RAW264.7 cells assessed as decrease in IFN-gamma and LPS-induced IL-1beta production by measuring IL-1beta level at 8.4 uM after 24 hrs by ELISA (reference value: 73.3 +/- 1.8 pg/mg). Type of data set: functional.
In data set [14] the test system is RAW264.7. Description: Antiinflammatory activity in mouse RAW264.7 cells assessed as decrease in IFN-gamma and LPS-induced IL-1beta production by measuring IL-1beta level at 4.2 uM after 24 hrs by ELISA (reference value: 73.3 +/- 1.8 pg/mg). In kind it is functional.
Data set [15] deals with RAW264.7. Description: Antiinflammatory activity in mouse RAW264.7 cells assessed as maximum decrease in IFN-gamma and LPS-induced IL-1beta production after 24 hrs by ELISA. In kind it is functional.
In data set [16] the test system is RAW264.7. The experiment in a line: Antiinflammatory activity in mouse RAW264.7 cells assessed as decrease in IFN-gamma and LPS-induced IL-1beta production by measuring IL-1beta level at 10 uM after 24 hrs by ELISA (reference value: 73.3 +/- 1.8 pg/mg). In kind it is functional.

On to `CN(C)c1ccc(C(=C2C=CC(=[N+](C)C)C=C2)c2ccc(N(C)C)cc2)cc1` [GENTIAN VIOLET], for which the IC50 – broadly, the concentration at which inhibition is half-maximal – in the data set on RAW264.7 [1] was 1.1 µM.

As to `COc1cc(C[C@H]2COC(=O)[C@@H](C(=O)O)[C@@H](C)[C@@H](C(=O)O)C(=O)OC[C@@H]2Cc2ccc(O)c(OC)c2)ccc1O`, the CC50 (as a rule, the concentration that lowers cell viability or growth by half) at 24 h in data set [2] was determined as 23.4 µM. In addition, the Activity was 73.3 pg/mg in the data set on RAW264.7 [3], 56 pg/mg in the data set on RAW264.7 [4], 71.3 pg/mg with RAW264.7 [5] and 70.2 pg/mg in the data set with RAW264.7 [7]. Further, the IC50 in the data set with RAW264.7 [1] was > 200 µM. The Imax in the data set on RAW264.7 [6] was 23.5%.

For the molecule `COc1cc(C[C@@H](CO)[C@H](COC(=O)CC(=O)O)Cc2ccc(O)c(OC)c2)ccc1O`, the Activity with RAW264.7 [8] was determined as 73.1 pg/mg; with RAW264.7 [3], 71.1 pg/mg; with RAW264.7 [5] it was 66 pg/mg; in the data set with RAW264.7 [7] it was 53.3 pg/mg. The CC50 at 24 h in [2] is 9.1 µM. Moreover, in the data set on RAW264.7 [1], the IC50 amounted to 173 µM. Also, in the data set on RAW264.7 [9], the Imax is on record as 27.3%.

In the case of `C/C=C/C(=O)OC[C@H](Cc1ccc(O)c(OC)c1)[C@H](CO)Cc1ccc(O)c(OC)c1`, the Activity came to 49.4 pg/mg in the data set on RAW264.7 [10], 74.1 pg/mg in the data set with RAW264.7 [11], 65.7 pg/mg in the data set on RAW264.7 [13] and 69.8 pg/mg in the data set with RAW264.7 [14]. For the same molecule, in data set [2], the CC50 at 24 h was found to be 7.3 µM. In addition, the IC50 with RAW264.7 [1] was determined as 92 µM. Moreover, the Imax with RAW264.7 [12] stood at 32.5%.

Take `COc1cc(C[C@@H](CO)[C@H](CO)Cc2ccc(O)c(OC)c2)ccc1O` [(+)-SECOISOLARICIRESINOL]: the Activity in the data set on RAW264.7 [10] amounted to 73 pg/mg; with RAW264.7 [11] it was 74.9 pg/mg; in the data set with RAW264.7 [13], 72.8 pg/mg; with RAW264.7 [14] it was 73 pg/mg. The Imax with RAW264.7 [15] was 0%. Moreover, the IC50 with RAW264.7 [1] was found to be 132 µM.

With `C[C@@H]1C[C@H]2[C@@H]3CCC4=CC(=O)C=C[C@]4(C)[C@@]3(F)[C@@H](O)C[C@]2(C)[C@@]1(O)C(=O)CO` [DEXAMETHASONE], the CC50 at 24 h in data set [2] was found to be 4.4 µM. The Imax in the data set with RAW264.7 [16] is 47.9%.
